Assay results published in PMC12196235, “Enhancing the Pharmacological Properties of Triterpenes Through Acetylation: An Anticancer and Antioxidant Perspective” (Molecules, 2025).
“And” between values parts separate entries of the source, which are not always exact repeats. Equal values may be shown once. Read-outs that look alike come from different tables or passages of the source.

Key:
[1] = test system: HeLa, KB, MCF-7, A-549, PC-3 and SKOV-3; assay: MTT assay, summary over the cancer cell lines; assay type: cell-based, human; settings: for cytotoxic activity class: classification by IC50 (good ≤ 10 μM, moderate 10–30 μM, ref 83)
Experimental: (§1) All the cell lines and mediums were obtained from the American Type Culture Collection (ATCC) supplied by LGC-Standards (Lomianki, Poland). Human cancer cell lines were cultured as follows: HeLa (human cervix carcinoma) and KB (human oral squamous carcinoma) lines were cultured in DMEM (Dulbecco’s Modified Eagle’s Medium); MCF-7 (human breast carcinoma) and A-549 (human lung carcinoma) were cultured in RPMI 1640 medium; PC-3 (human prostate carcinoma) was cultured in F-12K medium; SKOV-3 (human ovarian cystadenocarcinoma) was cultured in McCoy’s modified medium; HDF (human normal dermal fibroblasts) was cultured in Fibroblast Basal Medium. Each medium was supplemented with 10% fetal bovine serum, 1% L- glutamine and 1% penicillin/streptomycin solution. The cell lines were kept in an incubator at 37 °C.
(§2) All the tested cell lines (HeLa, KB, MCF-7, A-549, PC-3, SKOV-3 and HDF) were subjected to MTT assay. In short, this assay is based on the reaction between mitochondria enzymes (dehydrogenases) of tested cell lines and 3-(4,5-dimethylthiazol-2-yl)-2,5-diphenyltetrazolium bromide (MTT). The final product of this reaction gives violet formazan crystals. The number of live cells is proportional to the amount of formazan and is represented by the violet dye reagent. The details of the experiments are given in [19].

CUPRAC antioxidant assay = settings: calculated from Trolox standard curve
Experimental: (§3) The results are presented as % inhibition of the copper(II) ions and Trolox equivalent calculated from the standard curve (Figure 9) and as % inhibition of the DPPH radical and Trolox equivalent, calculated from the standard curve (Figure 10).
(§4) The CUPRAC reagent (7.5 mM ethanolic 96% neocuproine solution, 10 mM CuCl2 × H2O solution and an ammonium acetate buffer of pH 7.0) and DPPH reagent (2,2-diphenyl-1-picrylhydrazyl 0.2 mM solution) were applied.
(§5) The CUPRAC method measures the reducing power of a sample by quantifying its ability to convert the Cu-neocuproine reagent complex to the Cu(I) form. In contrast, the DPPH assay relies on the ability of an antioxidant to donate a hydrogen atom or an electron to the stable DPPH radical, resulting in its reduction and subsequent color change. The results are presented as % inhibition of the copper(II) ions and Trolox equivalent calculated from the standard curve (Figure 9) and as % inhibition of the DPPH radical and Trolox equivalent, calculated from the standard curve (Figure 10). The spectroscopic detection in CUPRAC and DPPH assays was conducted with Synergy H1 Multi-Mode Microplate Reader (BioTek Instruments, Inc., Winooski, VT, USA). The details of the experiments are given in [102].

DPPH antioxidant assay = settings: calculated from Trolox standard curve
Experimental: as §3, §4, §5

[2] = test system: SKOV-3 (human ovarian carcinoma); settings: MTT assay, data published earlier, read-out: IC50 (±SD), SKOV-3; cited from earlier work
[3] = test system: HDF (human dermal fibroblasts); settings: MTT assay, normal dermal fibroblasts; data published earlier; read-out: IC50 (±SD), HDF; cited from earlier work
[4] = test system: HSV-1/153 (Herpes simplex virus type 1 ACV-resistant strain); settings: ref 15; read-out: antiviral EC50 (HSV-1/153); cited from earlier work
[5] = test system: HSV-1/106 (Herpes simplex virus type 1 ACV-resistant strain); settings: ref 15; read-out: antiviral EC50 (HSV-1/106); cited from earlier work
[6] = test system: HSV-1/Blue (Herpes simplex virus type 1 ACV-resistant strain); settings: ref 15; read-out: antiviral EC50 (HSV-1/Blue); cited from earlier work
Staphylococcus aureus = settings: ref 16; cited from earlier work
Escherichia coli = settings: ref 16; cited from earlier work
Salmonella typhi = settings: ref 16; cited from earlier work
[7] = test system: KB (human oral squamous carcinoma); settings: ref 104; cited from earlier work
[8] = test system: Hep-G2 (human hepatocellular carcinoma); settings: cited from earlier work
[9] = test system: HCT-116 (human colorectal carcinoma); settings: cited from earlier work
[10] = test system: HT-29 (human colorectal adenocarcinoma); settings: cited from earlier work
[11] = test system: A-549 (human lung carcinoma); settings: cited from earlier work
[12] = test system: KB-VIN (multidrug resistant human epidermoid carcinoma); settings: ref 104; cited from earlier work
[13] = test system: B16-F10 (murine melanoma); settings: cited from earlier work
RAW 264.7 = settings: ref 106; cited from earlier work
[14] = test system: J774A.1 (macrophage-like cell line); settings: ref 106; cited from earlier work
[15] = test system: HeLa (human cervical epithelioid carcinoma); assay: MTT assay, HeLa; assay type: cell-based; settings: for IC50: Homo sapiens, MTT assay, HeLa, read-out: IC50 (±SD), HeLa
Experimental: as §1, §2

[16] = test system: KB (human oral squamous carcinoma); assay: MTT assay, KB; assay type: cell-based; settings: for IC50: Homo sapiens, MTT assay, KB; for Selectivity index (SI), KB: IC50 HDF / IC50 KB
Experimental: as §1, §2

[17] = test system: MCF-7 (human breast carcinoma); assay: MTT assay, MCF-7; assay type: cell-based; settings: for IC50: Homo sapiens, MCF7, MTT assay, MCF-7, read-out: IC50 (±SD), MCF-7; for Selectivity index (SI), MCF-7: IC50 HDF / IC50 MCF-7
Experimental: as §1, §2

[18] = test system: A-549 (human lung carcinoma); assay: MTT assay, A-549; assay type: cell-based; settings: for IC50: Homo sapiens, A549, MTT assay, A-549, read-out: IC50 (±SD), A-549; for Selectivity index (SI), A-549: IC50 HDF / IC50 A-549
Experimental: as §1, §2

[19] = test system: PC-3 (human prostate carcinoma); assay: MTT assay, PC-3; assay type: cell-based; settings: for IC50: Homo sapiens, MTT assay, PC-3, read-out: IC50 (±SD), PC-3; for Selectivity index (SI), PC-3: IC50 HDF / IC50 PC-3
Experimental: as §1, §2

[20] = test system: SKOV-3 (human ovarian carcinoma); assay: MTT assay, SKOV-3; assay type: cell-based; settings: for IC50: Homo sapiens, SK-OV-3, MTT assay, SKOV-3, read-out: IC50 (±SD), SKOV-3; for Selectivity index (SI), SKOV-3: IC50 HDF / IC50 SKOV-3
Experimental: as §1, §2

[21] = test system: HDF (human dermal fibroblasts); assay: MTT assay, normal HDF; assay type: cell-based; settings: Homo sapiens, Fibroblast, read-out: IC50 (±SD), HDF
Experimental: as §1, §2

[22] = test system: CCRF-CEM, CEM (human T lymphoblastic leukemia); settings: ref 26; read-out: anticancer IC50 (CCRF-CEM, CEM); cited from earlier work
[23] = test system: SMMC-7721 (human hepatocarcinoma); parameters: method as in PMID 35897914; settings: ref 27; read-out: anticancer IC50 (SMMC-7721); cited from earlier work
HCV (Hepatitis C virus) = test system: HCV (Hepatitis C virus); parameters: method as in PMID 26102077; settings: ref 32; read-out: antiviral EC50 (HCV); cited from earlier work
[24] = test system: SW-480 (human colon adenocarcinoma); parameters: method as in PMID 28981110; settings: ref 38; read-out: anticancer IC50 (SW-480); cited from earlier work
[25] = test system: NOZ (human gall bladder carcinoma); parameters: method as in PMID 31915810; settings: ref 39; read-out: anticancer IC50 (NOZ); cited from earlier work
[26] = test system: A-2780 (human ovarian carcinoma); parameters: method as in PMID 31277238; settings: ref 40; read-out: anticancer IC50 (A-2780); cited from earlier work

SMILES: CC1(C)CC[C@]2(C(=O)O)CC[C@]3(C)C(=CC[C@@H]4[C@@]5(C)CC[C@H](O)C(C)(C)[C@@H]5CC[C@]43C)[C@@H]2C1 [1a, oleanolic acid]
- cytotoxic activity class [1]: high or moderately high activity
- Trolox Equivalent, CUPRAC Assay (CUPRAC antioxidant assay): 0.1031 ± 0.00684 mg/mL
- Trolox Equivalent, DPPH Assay (DPPH antioxidant assay): 0.02633 ± 0.00109 mg/mL
- IC50 [2]: 18.8 µM
- IC50 [3]: 24.9 µM
- EC50 [4]: 13.1 µM
- EC50 [5]: 12.9 µM
- EC50 [6]: 13.1 µM
- antibacterial MBC (Staphylococcus aureus) (Staphylococcus aureus): 700 µg/mL
- antibacterial MIC (S. aureus) (Staphylococcus aureus): 95 µg/mL
- antibacterial MBC (Escherichia coli) (Escherichia coli): 900 µg/mL
- antibacterial MIC (E. coli) (Escherichia coli): 95 µg/mL
- antibacterial MBC (Salmonella typhi) (Salmonella typhi): 300 µg/mL
- antibacterial MIC (S. typhi) (Salmonella typhi): 65 µg/mL
- IC50 [7]: > 10 µM
- IC50 ([8]; ref 18, 19, read-out: anticancer IC50 (Hep-G2)): 16.2 µM
- IC50 ([8]; ref 105, read-out: IC50 (Hep-G2)): 212 µM
- anticancer IC50 (HCT-116) ([9]; ref 20): anticancer: IC50 = 40 µg × mL^−1 (HCT-116)
- IC50 ([10]; ref 105, read-out: IC50 (HT-29)): 430 µM
- IC50 ([11]; ref 104, read-out: IC50 (A-549)): 6.4 µM
- IC50 [12]: > 10 µM
- IC50 ([13]; ref 105): 106 µM
- IC50 ([13]; ref 107): 106 µM
- IC50 (RAW 264.7): 41.7 µM
- IC50 [14]: 35.2 µM

SMILES: CC1(C)CC[C@]2(CO)CC[C@]3(C)C(=CC[C@@H]4[C@@]5(C)CC[C@H](O)C(C)(C)[C@@H]5CC[C@]43C)[C@@H]2C1 [2a, erythrodiol]
- IC50 [15]: 54.3 µM
- IC50 [16]: 66 µM
- Selectivity index (SI), KB [16]: 0.42
- IC50 [17]: 65.5 µM
- Selectivity index (SI), MCF-7 [17]: 0.43
- IC50 [18]: 63.7 µM
- Selectivity index (SI), A-549 [18]: 0.44
- IC50 [19]: 21.1 µM
- Selectivity index (SI), PC-3 [19]: 1.32
- IC50 [20]: 18.3 µM
- Selectivity index (SI), SKOV-3 [20]: 1.53
- IC50 [21]: 28 µM
- times less active than oleanolic acid 1a ([1]; HeLa, KB, MCF-7 and A-459 cell lines): 4.4–7.2 times
- Trolox Equivalent, CUPRAC Assay (CUPRAC antioxidant assay): 0.09414 mg/mL and 0.09414 ± 0.0095 mg/mL
- Trolox Equivalent, DPPH Assay (DPPH antioxidant assay): 0.02092 mg/mL and 0.02092 ± 0.000866 mg/mL
- IC50 ([8]; ref 24, read-out: anticancer IC50 (Hep-G2)): 27.3 µM
- IC50 ([8]; ref 27, read-out: anticancer IC50 (Hep-G2)): 87.7 µM
- EC50 ([10]; ref 25, read-out: anticancer EC50 (HT-29)): 48.8 µM
- IC50 [22]: 250 µM
- IC50 [23]: 65 µM
- IC50 ([11]; cell line printed as A-459, read-out: anticancer IC50 (A-459)): 63 µM

SMILES: C=C(C)[C@@H]1CC[C@]2(C(=O)O)CC[C@]3(C)[C@H](CC[C@@H]4[C@@]5(C)CC[C@H](O)C(C)(C)[C@@H]5CC[C@]43C)[C@@H]12 [4a, betulinic acid]
- IC50 [15]: 27.5 µM
- Selectivity index (SI), HeLa ([15]; IC50 HDF / IC50 HeLa): 0.72
- IC50 [16]: 35.2 µM
- Selectivity index (SI), KB [16]: 0.56
- IC50 [17]: 27.9 µM
- Selectivity index (SI), MCF-7 [17]: 0.71
- IC50 [18]: 26.2 µM
- Selectivity index (SI), A-549 [18]: 0.76
- IC50 [19]: 10.6 µM
- Selectivity index (SI), PC-3 [19]: 1.88
- IC50 [20]: 9.52 µM
- Selectivity index (SI), SKOV-3 [20]: 2.09
- IC50 [21]: 19.9 µM
- cytotoxic activity class [1]: high or moderately high activity
- Trolox Equivalent, CUPRAC Assay (CUPRAC antioxidant assay): 0.07632 ± 0.00727 mg/mL
- Trolox Equivalent, DPPH Assay (DPPH antioxidant assay): 0.01526 ± 0.000632 mg/mL
- IC50 ([9]; ref 38, read-out: anticancer IC50 (HCT-116)): 178 µM
- IC50 ([10]; ref 38, read-out: anticancer IC50 (HT-29)): 125 µM
- IC50 [22]: 30 µM
- EC50 (HCV (Hepatitis C virus)): 11.2 µM
- IC50 [24]: 58 µM
- IC50 [25]: 30 µM
- IC50 [26]: 44.5 µM
